Molecular target: T1, MRSA pyruvate kinase (PK) (Staphylococcus aureus, UniProt Q2FG40)
T1 construct: gene pyk; His-tagged MRSA PK from S. aureus USA300 LAC *, pET-28a, expressed in E. coli
T1 sequence (Q2FG40 1-585): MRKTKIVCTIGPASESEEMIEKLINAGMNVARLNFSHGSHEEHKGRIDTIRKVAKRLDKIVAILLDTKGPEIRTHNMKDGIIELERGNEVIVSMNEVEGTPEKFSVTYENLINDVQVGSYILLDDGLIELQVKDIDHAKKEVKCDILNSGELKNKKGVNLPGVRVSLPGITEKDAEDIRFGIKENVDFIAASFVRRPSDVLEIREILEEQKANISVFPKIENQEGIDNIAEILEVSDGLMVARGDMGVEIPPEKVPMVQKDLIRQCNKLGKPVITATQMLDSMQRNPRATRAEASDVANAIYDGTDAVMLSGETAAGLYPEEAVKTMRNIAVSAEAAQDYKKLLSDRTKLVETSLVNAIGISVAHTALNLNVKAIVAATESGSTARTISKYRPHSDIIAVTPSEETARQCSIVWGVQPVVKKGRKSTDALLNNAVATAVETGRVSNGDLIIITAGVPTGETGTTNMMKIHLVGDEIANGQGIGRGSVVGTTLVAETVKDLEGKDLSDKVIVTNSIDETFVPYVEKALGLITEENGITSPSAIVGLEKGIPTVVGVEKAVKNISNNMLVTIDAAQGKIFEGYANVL
Test: Kinase-Glo luminescence assay of ATP formed by purified PK from PEP and ADP
Assay type: biochemical

Compound | IC50 [nM]
Oc1ccc2c(-c3c4cc(F)sc4cc4[nH]c5cc(O)ccc5c34)c[nH]c2c1 [3c, 2-Fluoro-4-(6-hydroxy-1H-indol-3-yl)-9H-thieno[2,3-b]carbazol-7-ol] | 1600
Fc1cc2cc3[nH]c4cc(Cl)ccc4c3c(-c3c[nH]c4cc(Cl)ccc34)c2s1 [4f, 7-Chloro-10-(6-chloro-1H-indol-3-yl)-2-fluoro-5H-thieno[3,2-b]carbazole] | 2300
Fc1cc2c(-c3c[nH]c4ccc(Cl)cc34)c3c(cc2s1)[nH]c1ccc(Cl)cc13 [3f, 6-Chloro-4-(5-chloro-1H-indol-3-yl)-2-fluoro-9H-thieno[2,3-b]carbazole] | 2100
Fc1cc2c(-c3c[nH]c4ccc(Br)cc34)c3[nH]c4ccc(Br)cc4c3cc2s1 [6d, 8-Bromo-4-(5-bromo-1H-indol-3-yl)-2-fluoro-5H-thieno[3,2-b]carbazole] | 3500

Reference: publication PMC9502754, “Novel Effective Fluorinated Benzothiophene-Indole Hybrid Antibacterials against S. aureus and MRSA Strains” (Pharmaceuticals, 2022)
